US11452708B2, “Discovery of potent [alpha]-glucosidase inhibitors from Heterophragma adenophyllum” (KING ABDULAZIZ UNIVERSITY, priority 2021, dated 2022)
Values joined by “and” are separate entries in the source; they are usually repeats but may differ in a detail not shown here. Equal entries are not always repeated. Where two headings read alike, the source gives them in different places.

Molecular target: α-glucosidase (E.C.3.2.1.20) (Saccharomyces cerevisiae, UniProt P53341)
Experiment: α-glucosidase inhibitory activity (p-nitrophenyl-α-d-glucopyranoside substrate, absorbance at 400 nm)
Format: biochemical
Details: in vitro; for IC50: 0.1 M phosphate buffer, pH 6.8, 37° C., standard acarbose, unit inferred
Description: . The substrate (0.7 Mm, p-nitrophenyl-α-d-glucopyranoside) was then mixed in and the difference in absorbance at 400 nm was recorded using a spectrophotometer for 30 minutes. The tested extracts and compound 1 were substituted with DMSO-d6 (7.5%) in the control. The standard drug used in this experiment was acarbose. The percentage activity was calculated by using the following formula.

[1] = read-out: IC50, α-glucosidase inhibition

α-glucosidase (E.C.3.2.1.20), sequence (P53341 whole entry): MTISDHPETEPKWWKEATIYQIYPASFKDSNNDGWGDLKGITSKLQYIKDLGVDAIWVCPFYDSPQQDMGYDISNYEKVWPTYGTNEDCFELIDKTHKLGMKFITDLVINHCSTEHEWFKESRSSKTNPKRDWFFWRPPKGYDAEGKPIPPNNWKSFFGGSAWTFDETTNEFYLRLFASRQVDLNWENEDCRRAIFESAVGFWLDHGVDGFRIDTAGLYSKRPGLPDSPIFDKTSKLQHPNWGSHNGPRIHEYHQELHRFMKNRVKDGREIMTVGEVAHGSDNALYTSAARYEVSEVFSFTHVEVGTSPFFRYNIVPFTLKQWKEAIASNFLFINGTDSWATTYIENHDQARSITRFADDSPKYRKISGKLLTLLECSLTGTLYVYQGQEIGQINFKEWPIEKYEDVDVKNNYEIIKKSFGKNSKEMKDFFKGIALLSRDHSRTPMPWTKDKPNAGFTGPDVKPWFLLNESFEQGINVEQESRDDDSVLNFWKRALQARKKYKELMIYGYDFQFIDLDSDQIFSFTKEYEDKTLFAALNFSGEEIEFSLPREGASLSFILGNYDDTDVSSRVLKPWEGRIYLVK

| Compound | IC50 [1] | further results |
| --- | --- | --- |
| CC(C)=CCC1=C(O)C(=O)c2ccccc2C1=O [Compound 1, lapachol] | 33.1 ± 2.41 µM | – |
| CC1(C)CCC2=C(O1)C(=O)c1ccccc1C2=O [Compound 4, α-lapachone] | 117 µM and 78.3 µM | – |
| COC(=O)C1(O)c2ccccc2C(=O)C1(O)CC=C(C)C (stereo not shown) [Compound 3, Methyl 1,2-dihydroxy-2-(3-methylbut-2-enyl)-3-oxo-2,3-dihydroxo-1H-indene-1-carboxylate] | – | IC50 (IC50, α-glucosidase inhibition): 78.3 µM and 117 µM |
| peshawaraquinone [Compound 2] | – | α-glucosidase inhibitory activity (in words) (comparison among the tested compounds 1-4): least active |
